Data taken from paper PMC7504814, “Coumarin and Moracin Derivatives from Mulberry Leaves (Morus alba L.) with Soluble Epoxide Hydrolase Inhibitory Activity” (Molecules, 2020).
Like-named read-outs stand apart in the source and are kept apart here.

Columns and labels:
sEH [1] = target: T1, sEH (Homo sapiens, UniProt P34913); assay: sEH inhibition assay with PHOME fluorescent substrate; type: biochemical; conditions: for inhibition at 100 µM: compound at 100 µM, read-out: Inhibition of Compounds on sEH, 100 µM(%)
T1 construct: purchased Cayman Chemical Company 10011669
T1 sequence (P34913 1-555): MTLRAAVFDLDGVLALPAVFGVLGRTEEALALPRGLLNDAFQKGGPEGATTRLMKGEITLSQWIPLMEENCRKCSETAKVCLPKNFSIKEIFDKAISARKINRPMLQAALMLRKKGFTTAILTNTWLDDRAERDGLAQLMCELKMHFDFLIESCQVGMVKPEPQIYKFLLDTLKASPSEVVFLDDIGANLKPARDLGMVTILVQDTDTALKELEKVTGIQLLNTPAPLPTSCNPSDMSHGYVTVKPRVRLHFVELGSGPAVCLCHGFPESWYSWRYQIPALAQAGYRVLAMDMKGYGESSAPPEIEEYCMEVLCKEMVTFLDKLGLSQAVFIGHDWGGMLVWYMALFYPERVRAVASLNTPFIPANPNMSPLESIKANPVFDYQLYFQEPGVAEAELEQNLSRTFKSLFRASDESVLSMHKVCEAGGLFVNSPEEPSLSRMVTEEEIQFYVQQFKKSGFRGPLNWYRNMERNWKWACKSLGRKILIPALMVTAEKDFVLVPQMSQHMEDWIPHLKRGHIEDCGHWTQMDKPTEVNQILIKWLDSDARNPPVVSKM

sEH [2] = target: T1, sEH; assay: sEH kinetic assay (Lineweaver-Burk and Dixon plots); type: biochemical; conditions: PHOME 5–80 µM; for Type of inhibition: Lineweaver-Burk plots; for Ki: calculated from Dixon plots
[3] = PHOME substrate, mean ± SD (n = 3), read-out: Inhibition of Compounds on sEH, IC50
[4] = PHOME substrate, mean ± SD (n = 3)

Compound | IC50 (sEH [1]; [3]) [µM] | inhibition at 100 µM (sEH [1]; [4]) [%] | Type of inhibition (sEH [2]) | Ki (sEH [2]) [µM] | IC50 (sEH [1]) [µM]
COc1cc(O)cc(-c2cc3cc(O)c(OC)cc3o2)c1 [Compound 4, moracin B] | 1.1 ± 0.1 | 100 | competitive | 1 | –
COc1cc2ccc(=O)oc2cc1O [Compound 2, scopoletin] | 0.2 ± 0.1 | 100 | competitive | 0.3 | –
Oc1cc(O)cc(-c2cc3ccc(O)cc3o2)c1 [Compound 6, moracin M] | 9.9 ± 2.2 | 100 | competitive | 1.5 | –
COc1cc2ccc(=O)oc2cc1OC1OC(CO)C(O)C(O)C1O (stereo not drawn) [Compound 3] | 15.9 ± 0.4 | 100 | competitive | 5.4 | –
COc1cc2cc(-c3cc(O)cc(O)c3)oc2cc1O [Compound 5, moracin J] | 1.2 ± 0.1 | 100 | mixed types of inhibitors | 2.1 | –
OCC1OC(Oc2cc(O)cc(-c3cc4ccc(O)cc4o3)c2)C(O)C(O)C1O (stereo not drawn) [Compound 7, moracin M 3’-O-β-glucopyranoside] | 7.7 ± 0.1 | 100 | mixed types of inhibitors | 5.8 | –
O=c1ccc2cc(O)c(O)cc2o1 [Compound 1, aesculetin] | – | 100 | – | 1.2 | 6.9 ± 0.5
